In patent publication US10100372B2, “Recombinant RSV reporter virus” (priority 2014, dated 2018):
Like-named read-outs stand apart in the source and are kept apart here.

Columns and labels:
[1] = system: recRSV A2-L19F-renilla; experiment: microbe, parasite or virus in culture; assay type: cell-based; details: BEAS-2B, 95% confidence interval in parentheses, inactive = less than 50% reduction of mean reporter signal; for EC50: read-out: EC50 RSV A2-L19F-renilla
[2] = system: recIAV WSN-NanoLuc; details: for SI [CC50/EC50] IAV: SIIAV
[3] = system: recRSV A2-L19FD489E-fireSMASh
[4] = in vitro; details: human
[5] = system: BEAS-2B cells; details: highest concentration 10 μM, tox = less than 50% cell viability after 44 hours at ≤10 μM
[6] = system: RSV A2 strain; details: cited from earlier work
[7] = target: RSV F protein (Human respiratory syncytial virus, UniProt P12568); details: resistance sites in the RSV F protein; cited from earlier work
[8] = system: recRSV A2-L19FD489E-fireSMASh; experiment: microbe, parasite or virus in culture; assay type: cell-based, Respiratory Syncytial Virus; details: human respiratory syncytial virus, 384-well, four replicate screens, mean ± SD, BEAS-2B co-infection, read-out: % Inhibition (anti-RSV)
[9] = system: recIAV WSN-NanoLuc; experiment: microbe, parasite or virus in culture; assay type: cell-based, influenza virus IAV/WSN/33 (H1N1); details: unidentified influenza virus, WSN, BEAS-2B, read-out: % Inhibition (anti-IAV)
[10] = system: recIAV WSN-NanoLuc; experiment: microbe, parasite or virus in culture; details: Influenza A virus, BEAS-2B, read-out: EC50 IAV WSN-nanoLuc
[11] = system: recRSV A2-L19FD489E-fireSMASh; experiment: microbe, parasite or virus in culture; details: human respiratory syncytial virus, BEAS-2B, read-out: EC50 RSV A2-L19FD489E-fireSMASh
[12] = BEAS-2B, 95% confidence interval in parentheses, inactive = less than 50% reduction of mean reporter signal
[13] = active concentrations based on in vitro assays, when available RSV A2 strain
[14] = human respiratory syncytial virus

Chain of RSV F protein (P12568 137-574 limits assumed): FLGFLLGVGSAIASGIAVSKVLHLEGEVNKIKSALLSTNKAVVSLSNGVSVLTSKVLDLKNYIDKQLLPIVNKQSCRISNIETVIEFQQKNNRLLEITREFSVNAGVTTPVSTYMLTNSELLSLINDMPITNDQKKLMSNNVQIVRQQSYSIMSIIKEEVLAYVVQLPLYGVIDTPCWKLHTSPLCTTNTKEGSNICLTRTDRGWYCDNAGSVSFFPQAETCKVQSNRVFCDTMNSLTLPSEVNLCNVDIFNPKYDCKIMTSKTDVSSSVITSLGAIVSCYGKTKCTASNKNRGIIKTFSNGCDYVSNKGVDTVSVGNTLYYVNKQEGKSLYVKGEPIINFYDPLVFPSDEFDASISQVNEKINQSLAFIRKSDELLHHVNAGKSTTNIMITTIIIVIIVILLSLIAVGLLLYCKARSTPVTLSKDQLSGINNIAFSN
Chain of RSV F protein (P12568 26-109 partner limits assumed): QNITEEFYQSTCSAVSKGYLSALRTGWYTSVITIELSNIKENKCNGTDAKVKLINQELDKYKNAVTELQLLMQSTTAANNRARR

For CCOC(=O)C1=C(C)NC(C)=C(C(=O)OC)C1c1cccc([N+](=O)[O-])c1 (stereo not drawn) [Nitrendipine], the “EC50 RSV A2-L19F-renilla” value [1] was “inactive^e”, the “EC50 IAV WSN-nanoLuc” value [2, 12] was “inactive^e” and the “EC50 RSV A2-L19FD489E-fireSMASh” value [3, 12] was “inactive^e”. The CC50 [4] was > 10000 nM.

For Cn1c(=O)c(-c2c(Cl)cccc2Cl)cc2cnc(Nc3ccc(N4CCOCC4)cc3)nc21 [PD173952], the “CC50 (PrestoBlue cell viability)” value [5] was “tox^d”.

For CCN(CC)CCOc1ccc(Nc2ncc3cc(-c4c(Cl)cccc4Cl)c(=O)n(C)c3n2)cc1 [PD-166285], the “CC50 (PrestoBlue cell viability)” value [5] was “tox^d”.

c1cnc2c(c1)ccc1cccnc12 [Phenanthroline] showed a CC50 [4] of 2400 nM.

In the case of Cc1ccc(O)c(Cn2c(NC3CCN(CCN)CC3)nc3c(C)cccc32)n1 [R170591], the EC50 [6, 13] is given as 2 nM and the reported resistance sites [7] is given as “FF488I FF488L FD489Y”.

For Cc1nc2ccc(CN(C)c3ccc(C(=O)N[C@@H](CCC(=O)O)C(=O)O)s3)cc2c(=O)[nH]1 [Raltitrexed], the inhibition at 5 µM [8] was 91 ± 1% and the inhibition at 5 µM [9] was 60 ± 6.5%.

In the case of NC(=O)c1ncn([C@@H]2O[C@H](CO)[C@@H](O)[C@H]2O)n1 [Ribavirin], the EC50 [1, 14] is reported as 2900 nM, the “SI [CC50/EC50] IAV” value [2] is reported as “SIIAV >2.2” and the “SI [CC50/EC50] RSV” value ([3]; SIRSV) is reported as “SIRSV >3.9”. For the same compound, the CC50 [4] was > 10000 nM, the EC50 [10] was 4500 nM and the EC50 [11] was 2600 nM.

For CN(CCOc1ccc(CC2SC(=O)NC2=O)cc1)c1ccccn1 (stereo not drawn) [Rosiglitazone], the inhibition at 5 µM [8] was 85 ± 5.8% and the inhibition at 5 µM [9] was 35 ± 5%.

With C[n+]1cc2c3c(ccc2c2ccc4cc5c(cc4c21)OCO5)OCO3 [Sanguinarine] the “CC50 (PrestoBlue cell viability)” value [5] was “tox^d”.

For CCN(CC)CCNC(=O)c1c(C)[nH]c(/C=C2\C(=O)Nc3ccc(F)cc32)c1C [Sunitinib], the “CC50 (PrestoBlue cell viability)” value [5] was “tox^d”.

In the case of Cc1ccc(CCCO)c(NCc2ccc3nc(NCCCN4CCOCC4)n(Cc4nc(C)ccc4O)c3c2)c1 [TMC353121], the EC50 [6] is listed as 0.13 nM and the reported resistance sites [7] is listed as “FK394R FS398L FD486N”.

Compound Cn1nnc2c(C(N)=O)ncn2c1=O [Temozolomide] has an inhibition at 5 µM [8] of 96 ± 1.3% and an inhibition at 5 µM [9] of 55 ± 3.2%.

For Nc1nc(N)c2nc(-c3ccccc3)c(N)nc2n1 [Triamterene], the “EC50 RSV A2-L19F-renilla” value [1] was “inactive^e”, the “EC50 IAV WSN-nanoLuc” value [2, 12] was “inactive^e” and the “EC50 RSV A2-L19FD489E-fireSMASh” value [3, 12] was “inactive^e”. For the same compound, the CC50 [4] was > 10000 nM.

Work on CC(C)[C@]12O[C@H]1[C@@H]1O[C@]13[C@]1(O[C@H]1C[C@H]1C4=C(CC[C@@]13C)C(=O)OC4)[C@@H]2O [Triptolide] yielded an inhibition at 5 µM [8] of 1.5 ± 21%, an inhibition at 5 µM [9] of 103 ± 1.2% and an EC50 [1, 14] of 600 nM. For the same compound, the “SI (CC50/EC50) value at dose-response testing” value ([2]; virus not given) was “below two”, the CC50 [4] was 300 nM and the EC50 [10] was 150 nM. For the same compound, the EC50 [11] was 400 nM.

For Cc1nnnn1/N=C/c1ccc(O)c(C(c2ccc(O)cc2)c2cc(/C=N/n3nnnc3C)ccc2O)c1 [VP-14637], the EC50 [6, 13] is listed as 1.4 nM and the reported resistance sites [7] is listed as “FT400A FF488Y”.

With CC[C@]1(O)C[C@H]2CN(CCc3c([nH]c4ccccc34)[C@@](C(=O)OC)(c3cc4c(cc3OC)N(C=O)[C@H]3[C@@](O)(C(=O)OC)[C@H](OC(C)=O)[C@]5(CC)C=CCN6CC[C@]43[C@@H]65)C2)C1 [Vincristine] the inhibition at 5 µM [8] was 79 ± 6.9% and the inhibition at 5 µM [9] was 50 ± 2.9%.

For CC(=O)N[C@H]1[C@H]([C@H](O)[C@H](O)CO)OC(C(=O)O)=C[C@@H]1N=C(N)N [Zanamivir], the “EC50 RSV A2-L19F-renilla” value [1] was “Inactive”, the “SI [CC50/EC50] IAV” value [2] was “SI^IAV >500” and the “selectivity for IAV reporter” value ([2]; dose-response counterscreen) was “selectively inhibited the IAV reporter”. The “EC50 RSV A2-L19FD489E-fireSMASh” value [3, 12] was “Inactive”, the CC50 [4] was > 10000 nM and the EC50 [10] was 20 nM.

In the case of ET-18-OCH3, the “EC50 RSV A2-L19F-renilla” value [1] is reported as “inactive^e”, the “EC50 IAV WSN-nanoLuc” value [2, 12] is reported as “inactive^e” and the “EC50 RSV A2-L19FD489E-fireSMASh” value [3, 12] is reported as “inactive^e”. For the same compound, the CC50 ([5]; read-out: CC50 (PrestoBlue cell viability)) was > 10000 nM.

For Stattic, the EC50 [1] was 15100 nM, the “SI [CC50/EC50] IAV” value [2] was “SIIAV 3” and the EC50 ([2]; read-out: EC50 IAV WSN-nanoLuc, BEAS-2B, 95% confidence interval in parentheses, inactive = less than 50% reduction of mean reporter signal) was 3300 nM. For the same compound, the EC50 ([3]; read-out: EC50 RSV A2-L19FD489E-fireSMASh, BEAS-2B, 95% confidence interval in parentheses, inactive = less than 50% reduction of mean reporter signal) was 5900 nM.
